For data set [1], the system named is KR12C (synthetic, derived from human LL37). Description: CD melting. Particulars: ITC: 10 mM potassium phosphate pH 7.0, 100 mM KCl, 25 C; 20 uM peptide in cell, 500 uM G4 DNA in syringe; one-site fit. NMR: same buffer, 10% D2O, NOESY at ….
For data set [2], the system named is KR12A (synthetic, derived from human LL37). Description: ITC. Particulars: ITC: 10 mM potassium phosphate pH 7.0, 100 mM KCl, 25 C; 20 uM peptide in cell, 500 uM G4 DNA in syringe; one-site fit. NMR: same buffer, 10% D2O, NOESY at ….
In data set [3] the test system is KR12B (synthetic, derived from human LL37). Description: ITC. Particulars: ITC: 10 mM potassium phosphate pH 7.0, 100 mM KCl, 25 C; 20 uM peptide in cell, 500 uM G4 DNA in syringe; one-site fit. NMR: same buffer, 10% D2O, NOESY at ….
The test system of data set [4] is KR12C (synthetic, derived from human LL37). Description: ITC. The settings on record: ITC: 10 mM potassium phosphate pH 7.0, 100 mM KCl, 25 C, 20 uM peptide in cell, 500 uM G4 DNA in syringe, one-site fit. NMR: same buffer, 10% D2O, NOESY at …; for binding signal (fold lower affinity than c-MYC G4): 100 mM KCl, fold order read as BCL-2 then telomere.
For data set [5], the system named is KR12D (synthetic, derived from human LL37). The experiment in a line: ITC. The settings on record: ITC: 10 mM potassium phosphate pH 7.0, 100 mM KCl, 25 C; 20 uM peptide in cell, 500 uM G4 DNA in syringe; one-site fit. NMR: same buffer, 10% D2O, NOESY at ….
Data set [6] has as its system KR12E (synthetic, derived from human LL37). The experiment in a line: ITC. The settings on record: ITC: 10 mM potassium phosphate pH 7.0, 100 mM KCl, 25 C; 20 uM peptide in cell, 500 uM G4 DNA in syringe; one-site fit. NMR: same buffer, 10% D2O, NOESY at ….
The test system of data set [7] is KR12A (synthetic, derived from human LL37). Description: CD melting. Particulars: destabilizes; ITC: 10 mM potassium phosphate pH 7.0, 100 mM KCl, 25 C; 20 uM peptide in cell, 500 uM G4 DNA in syringe; one-site fit. NMR: same buffer, 10% D2O, NOESY at ….
The subject of data set [8] is KR12E (synthetic, derived from human LL37). Description: CD melting. The settings on record: destabilizes; ITC: 10 mM potassium phosphate pH 7.0, 100 mM KCl, 25 C; 20 uM peptide in cell, 500 uM G4 DNA in syringe; one-site fit. NMR: same buffer, 10% D2O, NOESY at ….
For data set [9], the system named is native c-MYC quadruplex (Pu27). Description: ITC of peptides with native c-MYC quadruplex Pu27 in potassium phosphate buffer. Type of data set: binding, human. Particulars: 25°C, 20 μM peptide in cell, 500 μM Pu27 in syringe, 10 mM potassium phosphate, 0.1 M KCl, pH 7.0, one-site model. The method, then:
The putative wild-type and truncated G-quadruplex forming sequences (Table 2 and Supplementary Table S1), located at the upstream of c-MYC promoter are reconstituted in 10 mM Potassium Phosphate buffer (pH 7.0) having 100 mM potassium chloride (KCl). The sequences are allowed to evolve G-quadruplex structure in solution by annealing at 95°C followed by gradual cooling. (Supplementary information Section 1).
Thermodynamic attributes of the interaction profiles between peptides and putative quadruplex sequences are analysed by ITC using iTC200 Microcalorimeter at 25°C. Synthetic peptides (FK13, KR12A, KR12B, KR12C, KR12D and KR12E) are diluted to 20 μM in 10 mM Potassium phosphate buffer (10 mM K2HPO4 + 10 mM KH2PO4) containing 0.1 M KCl (pH 7.0). Syringe is filled with 500 μM quadruplex sequences present in the upstream promoter regions of c-MYC (Pu27, Pu19, and Myc22), BCL-2 (Pu30), VEGF-A (Pu22), KRAS (Pu32) oncogenes, and telomere (Tel26) dissolved into the same buffer. We also carried out the experiment for KR12C and Pu27 using MCF-7 nuclear extract as the solvent to mimic the cellular microenvironment and impart macromolecular crowding during binding events. Same concentration of oligonucleotides is injected into the identical buffer or in nuclear extract without peptides to normalize the heat of dilution of peptide-quadruplex association to that of the control before curve-fitting. Oligonucleotides are injected 20 times at an interval of 150 s into the calorimeter cell having the peptides to achieve binding saturation. The heat of reaction per injection (μcal/s) is determined by integration of the peak areas using in-built Origin 7.0 software that provides the best-fit values of enthalpy (ΔH) and entropy (ΔS) of binding, the binding stoichiometry (n), and dissociation constant (Kd) (Supplementary Tables S5(a), S5(b) and S5(c)). Data points are further simulated with ‘one-site’ binding modes (Supplementary information Section 1).

Another data set has as its system c-MYC quadruplex Pu27. The experiment in a line: CD melting of free and peptide-bound Pu27. It is filed as binding, human. The method, then:
To understand the role of peptides (FK13, KR12A, KR12B, KR12C, KR12D and KR12E) in stabilizing native and truncated isomers of c-MYC G-quadruplex, we have performed temperature-driven CD melting experiments for free and peptide-bound complexes in JASCO-J815 CD spectrometer. We have gradually titrated the peptides into 10 μM of putative quadruplexes and acquired the spectra after 5 min of peptide addition to allow complex formation and equilibration. Samples are heated from 20 to 95°C having the temperature gradient and the delay time of 2.5°C/min and 150 s respectively. Since the quadruplexes unfold at higher temperatures and revert back to their initial conformations upon renaturation, we have assumed a ‘two-state transition’ model (folded and unfolded) to analyze the melting curves and estimated the melting temperatures (Tm) by fitting the data points into sigmoidal curves (Supplementary information Section 1).

For data set [10], the system named is c-MYC promoter (Pu27-GQ) in MCF-7 cells. The experiment in a line: Dual-luciferase assay, c-MYC promoter with Pu27-GQ. It is filed as cell-based, human. The settings on record: MCF-7, 24 h, peptide 0–60 μM. On the procedure:
(§1) MCF-7 cells are sub-cultured into 24-well microtiter plates at a cell density of 1 × 10^5 cells/well. Reporter constructs (c-MYC, BCL-2, KRAS and VEGF-A) (500 ng) with and/or without the G-quadruplex scaffolds triggering the expression of Renilla luciferase are co-transfected with 50 ng of pGL3-control vectors (Promega) (used as internal control), encoding firefly luciferase into MCF-7 cells using Lipofectamine® 3000 transfection reagent (Thermo-Fisher Scientific) following manufacturer's recommendations (Supplementary information Section 1). Twenty four hours post-transfection, cells are treated with peptides (FK13, KR12A, KR12B, KR12C, KR12D and KR12E) at an increasing concentration gradient.
(§2) Dual-luciferase assays are performed to examine the intracellular selectivity of peptides for c-MYC quadruplex isomers (Pu27, Myc22 and Pu19) over other oncogenic quadruplexes (BCL-2, VEGF-A and KRAS) of different topologies. The role of peptide-quadruplex complex in oncogene promoter activation is investigated in contrast to the GQ-null promoter constructs into MCF-7 cells ([67]). After 24 h of peptide treatment, cells are washed and lysed into 100 μl 1× Passive lysis buffer (PLB) for 15 min at room temperature. Renilla and firefly Luciferase activities in 25 μl lysate are quantified by Dual-Luciferase® reporter assay system (Promega) as per manufacturer's recommendations. Renilla luciferase enzyme activity is normalized to that of the firefly luciferase activity and luminescence of the peptide-treated samples are normalized to the untreated ones, which yield the fold induction values for Renilla activities by different quadruplex structures in presence and absence of synthetic peptides. Luminescence of each sample is detected in GloMax® 20/20 Single-Tube Luminometer (Promega) in triplicates and averaged from three independent experiments.

Data set [11] deals with BCL-2 promoter (BCL-2-GQ) in MCF-7 cells. Description: Dual-luciferase assay, BCL-2 promoter with BCL-2-GQ. It is filed as cell-based, human. The settings on record: MCF-7, 24 h, peptide 0–60 μM. On the procedure:
as §1, §2

In data set [12] the test system is KRAS promoter (KRAS-GQ) in MCF-7 cells. The experiment in a line: Dual-luciferase assay, KRAS promoter with KRAS-GQ. It is filed as cell-based, human. The settings on record: MCF-7, 24 h. The method, then: as §1, §2
Data set [13] has as its system VEGF-A promoter (VEGF-A-GQ) in MCF-7 cells. Description: Dual-luciferase assay, VEGF-A promoter with VEGF-A-GQ. Type of data set: cell-based, human. Particulars: MCF-7, 24 h, peptide 0–60 μM. On the procedure: as §1, §2
In data set [14] the test system is c-MYC promoter with Myc22 isomer in MCF-7 cells. Description: Dual-luciferase assay, c-MYC promoter under control of Myc22. It is filed as cell-based, human. Particulars: MCF-7, 24 h peptide treatment. On the procedure:
as §1, §2

The test system of data set [15] is c-MYC promoter with Pu19 isomer in MCF-7 cells. The experiment in a line: Dual-luciferase assay, c-MYC promoter under control of Pu19. It is filed as cell-based, human. The settings on record: MCF-7, 24 h peptide treatment. On the procedure:
as §1, §2

Data set [16] deals with T1, FK13 (LL37-derived peptide) (Homo sapiens (synthetic, derived from …, UniProt P49913 150-162)).
T1 chain: FKRIVQRIKDFLR
Description: ITC; 100 mM KCl; ITC: 10 mM potassium phosphate pH 7.0, 100 mM KCl, 25 C; 20 uM peptide in cell, 500 uM G4 DNA in syringe; one-site fit. NMR: same buffer, 10% D2O, NOESY at 15 C. Particulars: G4, unimolecular.

As to GGAGGGTGGGGAGGGTGGGGAA [Myc22], the binding signal (delta Tm, deg C) in data set [1] amounted to 6.91.
Consider TGGGGAGGGTGGGGAGGGT [Pu19], for which the binding signal (delta Tm, deg C) in [1] amounted to 10.9.
As usually defined, the Kd is the concentration at which binding is half-saturated. Low readings indicate tighter binding, high ones weaker binding. As to “TGGGGAGGGTGGGGAGGGTGGGGAAGG [Pu27 c-MYC quadruplex]”, the Kd in [2] came out at 61.7 µM; in [3] it was 37.3 µM; in [4] it was 8.06 µM; in [4] (MCF-7 nuclear extract as solvent (crowding)) it was 0.901 µM; in [5] it was 49 µM; in [6], 53.2 µM. The binding signal (delta Tm, deg C) is -30 in [7], 9 in data set [1] and -30 in data set [8].
BCL-2 Pu30 quadruplex displayed a binding signal (fold lower affinity than c-MYC G4) in data set [4] of 3.
Take “N – KRIVKVIKKWLR – C [KR12D, dodecameric mutant peptide derived from FK13 / LL37]”: in data set [9], the “K A” value was 20400 M⁻¹, the dissociation constant (Kd) was 49 µM, the “ΔG (binding energy)” value was -5.774 kcal/mol and the “ΔH (binding enthalpy)” value is -136 kcal/mol. For the same molecule, the “ΔS (entropy)” value in data set [9] was −437 cal/mol/deg. Besides, the “effect on thermal stability of Pu27” value in the data set with c-MYC quadruplex Pu27 is reported as “did not significantly induce thermal stability”. Also, the “c-MYC promoter activity” value in data set [10] is “no significant effects”. In addition, in data set [11], the “BCL-2 promoter activity” value is “no significant effects”. In [12] (at higher concentration), the “KRAS promoter activity, fold inhibition” value is given as around 1.6 fold. Further, the “VEGF-A promoter activity” value in [13] is “no significant effects”. In addition, the “c-MYC promoter activation under control of Myc22” value in data set [14] is reported as “no regulatory effect”. For the same molecule, the “c-MYC promoter activation under control of Pu19” value in [15] is on record as “no regulatory effect”.
As for Tel26 telomeric quadruplex, the binding signal (fold lower affinity than c-MYC G4) in data set [4] turned out to be 4.
As to “N – KRIVKRIKKWLL – C [KR12E, dodecameric mutant peptide derived from FK13 / LL37]”, in data set [9], the “K A” value came to 18800 M⁻¹, binding was characterised by a dissociation constant (Kd) of 53.2 µM, the “ΔG (binding energy)” value is -5.89 kcal/mol and the “ΔH (binding enthalpy)” value is -168 kcal/mol. Besides, the “ΔS (entropy)” value in [9] is −544 cal/mol/deg. For the same molecule, the “decrease of the Tm of Pu27 upon peptide binding” value in the data set with c-MYC quadruplex Pu27 (10 μM quadruplex, two-state model) was around 30 °C. The “c-MYC promoter activity” value in [10] is given as “no significant effects”. In data set [11], the “BCL-2 promoter activity” value was “no significant effects”. In addition, the “KRAS promoter activity” value in data set [12] (peptide 0–60 μM) is “no significant effects”. Further, the “VEGF-A promoter activity” value in data set [13] was “no significant effects”. For the same molecule, the “c-MYC promoter activation under control of Myc22” value in [14] is on record as “no regulatory effect”. Also, the “c-MYC promoter activation under control of Pu19” value in [15] is recorded as “no regulatory effect”.
Take TGGGGAGGGTGGGGAGGGTGGGGAAGG (structured_DNA) [Pu27 c-MYC quadruplex]: the Kd in [16] amounted to 34.6 µM.

The values above are taken from PMC6212778, “Site-specific amino acid substitution in dodecameric peptides determines the stability and unfolding of c-MYC quadruplex promoting apoptosis in cancer cells” (Nucleic Acids Research, 2018).
